Experimental data published in PubChem BioAssay AID2060882 (Molecular Pharmacology Branch, DTP, NCI, 2025).
Where “and” joins values, the source holds several entries; their conditions need not be identical. Equal values may be shown once. Blank lines part the entries; values can stand above or below the molecule they belong to.

Tested on: 898857-211-R-J1-PDC complex spheroids, growth % test/control
Experiment: Anticancer human tumor 898857-211-R-J1-PDC patient-derived melanoma cell line growth inhibition [RAS]
Settings: for viability, T/C: stronger effect = lower value
Outline: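 Multi-cell-type spheroids: tumor cells plus HUVEC endothelial cells and mesenchymal stem cells. RAS-pathway inhibitors were combined with targeted agents, each dosed in half-log steps down from clinical Cmax, or from 10 microM when Cmax was unknown.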

[1] = curve of first compound, second compound 0.000949 µM
[2] = curve of first compound, second compound 0.003 µM
[3] = curve of first compound, second compound 0.00949 µM
[4] = curve of first compound, second compound 0.03 µM
[5] = curve of first compound, second compound 0.0949 µM
[6] = curve of first compound, second compound 0.3 µM
[7] = second compound 0.000949 µM, first compound 0.0316 µM
[8] = second compound 0.000949 µM, first compound 0.1 µM
[9] = second compound 0.000949 µM, first compound 0.316 µM
[10] = second compound 0.000949 µM, first compound 1 µM
[11] = second compound 0.003 µM, first compound 0.0316 µM
[12] = second compound 0.003 µM, first compound 0.1 µM
[13] = second compound 0.003 µM, first compound 0.316 µM
[14] = second compound 0.003 µM, first compound 1 µM
[15] = second compound 0.00949 µM, first compound 0.0316 µM
[16] = second compound 0.00949 µM, first compound 0.1 µM
[17] = second compound 0.00949 µM, first compound 0.316 µM
[18] = second compound 0.00949 µM, first compound 1 µM
[19] = second compound 0.03 µM, first compound 0.0316 µM
[20] = second compound 0.03 µM, first compound 0.1 µM
[21] = second compound 0.03 µM, first compound 0.316 µM
[22] = second compound 0.03 µM, first compound 1 µM
[23] = second compound 0.0949 µM, first compound 0.0316 µM
[24] = second compound 0.0949 µM, first compound 0.1 µM
[25] = second compound 0.0949 µM, first compound 0.316 µM
[26] = second compound 0.0949 µM, first compound 1 µM
[27] = second compound 0.3 µM, first compound 0.0316 µM
[28] = second compound 0.3 µM, first compound 0.1 µM
[29] = second compound 0.3 µM, first compound 0.316 µM
[30] = second compound 0.3 µM, first compound 1 µM
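Note: spheroids exposed to compound for seven days before readout.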
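Throughout, for viability, T/C: 100% = DMSO vehicle control wells.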

IC50 [1]: 832 nM | IC50 [2]: 380 nM | IC50 [3]: 538 nM | IC50 [4]: 561 nM | IC50 [5]: 591 nM | IC50 [6]: 603 nM
Structure (SMILES): C=CC(=O)Nc1cc(Nc2nccc(-c3cn(C)c4ccccc34)n2)c(OC)cc1N(C)CCN(C)C + CCn1c(-c2cc(N3CCN(C)CC3)cnc2C(C)OC)c2c3cc(ccc31)-c1csc(n1)CC(NC(=O)C1CC1C)C(=O)N1CCCC(N1)C(=O)OCC(C)(C)C2
viability, T/C (second compound 0.000949 µM, first compound 0.00316 µM): 101% | viability, T/C (second compound 0.000949 µM, first compound 0.01 µM): 101% | viability, T/C [7]: 106% | viability, T/C [8]: 102% | viability, T/C [9]: 73.7% | viability, T/C [10]: 45.5% | viability, T/C (second compound 0.003 µM, first compound 0.00316 µM): 99% | viability, T/C (second compound 0.003 µM, first compound 0.01 µM): 113% | viability, T/C [11]: 97% | viability, T/C [12]: 88.9% | viability, T/C [13]: 52.4% | viability, T/C [14]: 34.9% | viability, T/C (second compound 0.00949 µM, first compound 0.00316 µM): 105% | viability, T/C (second compound 0.00949 µM, first compound 0.01 µM): 112% | viability, T/C [15]: 114% | viability, T/C [16]: 88.9% | viability, T/C [17]: 65.5% | viability, T/C [18]: 33.7% | viability, T/C (second compound 0.03 µM, first compound 0.00316 µM): 102% | viability, T/C (second compound 0.03 µM, first compound 0.01 µM): 96.2% | viability, T/C [19]: 110% | viability, T/C [20]: 91.3% | viability, T/C [21]: 64.7% | viability, T/C [22]: 35.6% | viability, T/C (second compound 0.0949 µM, first compound 0.00316 µM): 106% | viability, T/C (second compound 0.0949 µM, first compound 0.01 µM): 104% | viability, T/C [23]: 101% | viability, T/C [24]: 96% | viability, T/C [25]: 60.5% | viability, T/C [26]: 41.1% | viability, T/C (second compound 0.3 µM, first compound 0.00316 µM): 125% | viability, T/C (second compound 0.3 µM, first compound 0.01 µM): 114% | viability, T/C [27]: 102% | viability, T/C [28]: 97% | viability, T/C [29]: 64.7% | viability, T/C [30]: 36.2%

IC50 (curve of compound): 970 nM and > 1000 nM and 799 nM
Structure (SMILES): C=CC(=O)Nc1cc(Nc2nccc(-c3cn(C)c4ccccc34)n2)c(OC)cc1N(C)CCN(C)C
viability, T/C (compound 0.00316 µM): 113% and 103% (2×) and 128% | viability, T/C (compound 0.01 µM): 99.8% [middle of 4 runs] | viability, T/C (compound 0.0316 µM): 114% [middle of 4 runs] | viability, T/C (compound 0.1 µM): 102% [middle of 4 runs] | viability, T/C (compound 0.316 µM): 92.8% [middle of 4 runs] | viability, T/C (compound 1 µM): 54.5% [middle of 4 runs]

IC50 (curve of first compound, second compound 0.00316 µM): 366 nM | IC50 (curve of first compound, second compound 0.01 µM): 313 nM | IC50 (curve of first compound, second compound 0.0316 µM): 377 nM | IC50 (curve of first compound, second compound 0.1 µM): 490 nM | IC50 (curve of first compound, second compound 0.316 µM): > 1000 nM | IC50 (curve of first compound, second compound 1 µM): 309 nM
Structure (SMILES): CCN1CCN(Cc2ccc(Nc3ncc(F)c(-c4cc(F)c5nc(C)n(C(C)C)c5c4)n3)nc2)CC1 + C=CC(=O)N1CCN(c2nc(OCC3CCCN3C)nc3c(F)c(-c4nc(N)cc(C)c4C(F)(F)F)c(Cl)cc23)C(C)C1
viability, T/C (second compound 0.00316 µM, first compound 0.00316 µM): 106% | viability, T/C (second compound 0.00316 µM, first compound 0.01 µM): 106% | viability, T/C (second compound 0.00316 µM, first compound 0.0316 µM): 95.4% | viability, T/C (second compound 0.00316 µM, first compound 0.1 µM): 72.2% | viability, T/C (second compound 0.00316 µM, first compound 0.316 µM): 52.4% | viability, T/C (second compound 0.00316 µM, first compound 1 µM): 41.2% | viability, T/C (second compound 0.01 µM, first compound 0.00316 µM): 101% | viability, T/C (second compound 0.01 µM, first compound 0.01 µM): 106% | viability, T/C (second compound 0.01 µM, first compound 0.0316 µM): 86.6% | viability, T/C (second compound 0.01 µM, first compound 0.1 µM): 80.2% | viability, T/C (second compound 0.01 µM, first compound 0.316 µM): 45.7% | viability, T/C (second compound 0.01 µM, first compound 1 µM): 40.2% | viability, T/C (second compound 0.0316 µM, first compound 0.00316 µM): 121% | viability, T/C (second compound 0.0316 µM, first compound 0.01 µM): 102% | viability, T/C (second compound 0.0316 µM, first compound 0.0316 µM): 83.4% | viability, T/C (second compound 0.0316 µM, first compound 0.1 µM): 77% | viability, T/C (second compound 0.0316 µM, first compound 0.316 µM): 45.6% | viability, T/C (second compound 0.0316 µM, first compound 1 µM): 39.2% | viability, T/C (second compound 0.1 µM, first compound 0.00316 µM): 118% | viability, T/C (second compound 0.1 µM, first compound 0.01 µM): 96.4% | viability, T/C (second compound 0.1 µM, first compound 0.0316 µM): 98.2% | viability, T/C (second compound 0.1 µM, first compound 0.1 µM): 79.2% | viability, T/C (second compound 0.1 µM, first compound 0.316 µM): 56.4% | viability, T/C (second compound 0.1 µM, first compound 1 µM): 36.3% | viability, T/C (second compound 0.316 µM, first compound 0.00316 µM): 112% | viability, T/C (second compound 0.316 µM, first compound 0.01 µM): 117% | viability, T/C (second compound 0.316 µM, first compound 0.0316 µM): 91.8% | viability, T/C (second compound 0.316 µM, first compound 0.1 µM): 64.8% | viability, T/C (second compound 0.316 µM, first compound 0.316 µM): 59% | viability, T/C (second compound 0.316 µM, first compound 1 µM): 50.9% | viability, T/C (second compound 1 µM, first compound 0.00316 µM): 122% | viability, T/C (second compound 1 µM, first compound 0.01 µM): 114% | viability, T/C (second compound 1 µM, first compound 0.0316 µM): 102% | viability, T/C (second compound 1 µM, first compound 0.1 µM): 67.4% | viability, T/C (second compound 1 µM, first compound 0.316 µM): 53.8% | viability, T/C (second compound 1 µM, first compound 1 µM): 38%

IC50 [1]: > 10000 nM | IC50 [2]: 7540 nM | IC50 [3]: 7680 nM | IC50 [4]: 6370 nM | IC50 [5]: 8160 nM | IC50 [6]: 6160 nM
Structure (SMILES): CC(C)NCC(C(=O)N1CCN(c2ncnc3c2C(C)CC3O)CC1)c1ccc(Cl)cc1 (stereo not drawn) + CCn1c(-c2cc(N3CCN(C)CC3)cnc2C(C)OC)c2c3cc(ccc31)-c1csc(n1)CC(NC(=O)C1CC1C)C(=O)N1CCCC(N1)C(=O)OCC(C)(C)C2
viability, T/C [7]: 105% | viability, T/C [8]: 105% | viability, T/C [9]: 103% | viability, T/C [10]: 76.7% | viability, T/C (second compound 0.000949 µM, first compound 3.16 µM): 58.6% | viability, T/C (second compound 0.000949 µM, first compound 10 µM): 50.5% | viability, T/C [11]: 102% | viability, T/C [12]: 106% | viability, T/C [13]: 93.5% | viability, T/C [14]: 82.1% | viability, T/C (second compound 0.003 µM, first compound 3.16 µM): 63.3% | viability, T/C (second compound 0.003 µM, first compound 10 µM): 45.6% | viability, T/C [15]: 85.4% | viability, T/C [16]: 101% | viability, T/C [17]: 82% | viability, T/C [18]: 82% | viability, T/C (second compound 0.00949 µM, first compound 3.16 µM): 61.4% | viability, T/C (second compound 0.00949 µM, first compound 10 µM): 46.6% | viability, T/C [19]: 94% | viability, T/C [20]: 109% | viability, T/C [21]: 96% | viability, T/C [22]: 75.7% | viability, T/C (second compound 0.03 µM, first compound 3.16 µM): 61.2% | viability, T/C (second compound 0.03 µM, first compound 10 µM): 43.5% | viability, T/C [23]: 99.4% | viability, T/C [24]: 107% | viability, T/C [25]: 104% | viability, T/C [26]: 79.6% | viability, T/C (second compound 0.0949 µM, first compound 3.16 µM): 69.1% | viability, T/C (second compound 0.0949 µM, first compound 10 µM): 45.6% | viability, T/C [27]: 99.9% | viability, T/C [28]: 97.2% | viability, T/C [29]: 86.2% | viability, T/C [30]: 91.8% | viability, T/C (second compound 0.3 µM, first compound 3.16 µM): 63.9% | viability, T/C (second compound 0.3 µM, first compound 10 µM): 39.8%
